{"source": "ChEMBL document CHEMBL5380835", "about": "“Discovery of Clinically Used Octenidine as NRAS Repressor That Effectively Inhibits NRAS-Mutant Melanoma” (J Med Chem, 2023)", "key": {"SK-MEL-2 [1]": {"system": "SK-MEL-2", "test": "Synergistic cytotoxicity against human SK-MEL-2 cells expressing NRAS mutant assessed as combination index measured for 48 hrs in presence of LY3214996 by MTT assay", "type": "functional"}, "SK-MEL-2 [2]": {"system": "SK-MEL-2", "test": "Synergistic cytotoxicity against human SK-MEL-2 cells expressing NRAS mutant assessed as combination index measured for 48 hrs in presence of MEK-162 by MTT assay", "type": "functional"}, "SK-MEL-2 [3]": {"system": "SK-MEL-2", "test": "Cytotoxicity against human SK-MEL-2 cells expressing NRAS mutant assessed as cell growth inhibition incubated for 48 hrs by MTT assay", "type": "functional, cell-based", "details": "SK-MEL-2, 48 h"}, "[4]": {"test": "Binding affinity to 5'-FAM-labeled to NRAS RNA G-quadruplex 5'-r(UGUGGGAGGGGCGGGUCUGGG)-3' (unknown origin) assessed as dissociation constant by fluorescence quenching assay"}, "SK-MEL-2 [5]": {"system": "SK-MEL-2", "test": "Antitumor activity against human SK-MEL-2 cells xenografted in BALB/c nude mouse assessed as tumor growth inhibition at 10 mg/kg/day, ip by electronic caliper method", "type": "functional, organism-based", "details": "time 30.0 day, TDE = time-dependent effect"}, "SK-MEL-2 [6]": {"system": "SK-MEL-2", "test": "Antitumor activity against human SK-MEL-2 cells xenografted in BALB/c nude mouse assessed as T/C ratio at 10 mg/kg/day, ip administered for 30 days relative to control", "type": "functional", "details": "time 30 day"}, "SK-MEL-2 [7]": {"system": "SK-MEL-2", "test": "Antitumor activity against human SK-MEL-2 cells xenografted in BALB/c nude mouse assessed as reduction in tumor weight at 10 mg/kg/day, ip administered for 30 days by electronic caliper method", "type": "functional, organism-based", "details": "time 30.0 day"}, "SK-MEL-2 [8]": {"system": "SK-MEL-2", "test": "Antitumor activity against human SK-MEL-2 cells xenografted in BALB/c nude mouse assessed as tumor growth inhibition at 10 mg/kg/day, ip administered for 30 days relative to control", "type": "functional", "details": "SK-MEL-2, 720 h, time 30 day, read-out: TGI"}}, "note": "pIC50, pKd: −log10 of the molar value. The source made the active and inactive calls. No cut-off for these calls is given here."}
{"smiles": "NC1(c2ccc(-c3nc4ccn5c(=O)[nH]nc5c4cc3-c3ccccc3)cc2)CCC1", "note": "[MK-2206]", "values": [{"measurement": "CI", "setting": "SK-MEL-2 [1]", "result": 0.5}, {"measurement": "CI", "setting": "SK-MEL-2 [2]", "result": 0.5}]}
{"smiles": "CCCCCCCCN=c1ccn(CCCCCCn2ccc(=NCCCCCCCC)cc2)cc1", "values": [{"measurement": "pIC50", "setting": "SK-MEL-2 [3]", "result": 5.75}, {"measurement": "pKd", "setting": "[4]", "result": 6.49}]}
{"smiles": "CN(C)/N=N/c1[nH]cnc1C(N)=O", "note": "[DACARBAZINE]", "values": [{"measurement": "Activity", "setting": "SK-MEL-2 [5]", "result": "Tde"}, {"measurement": "T/C", "setting": "SK-MEL-2 [6]", "result": 28.9, "unit": "%"}, {"measurement": "Activity", "setting": "SK-MEL-2 [7]", "result": "Active"}, {"measurement": "inhibition in vivo at 10 mg/kg/day", "setting": "SK-MEL-2 [8]", "result": 57.7, "unit": "%"}]}
